Results taken from patent US20220160601A1, “Sunscreen Compositions” (Curie Co. Inc., priority 2020, published 2022).
Values belong to the compound of their own block, whether it stands above or below them.

How the values were obtained:
[1] = UV/Vis spectral properties (Cary-50 spectrophotometer); assay type: physicochemical; conditions: for UVA and UVB absorption properties compared to oxybenzone / absorption spectra, regions encompassed: acetonitrile; for UVA and UVB absorption properties compared to oxybenzone: 5 mM or 0.05 mM, FIG. 1; for absorption spectra, regions encompassed: 5 mM (N-Boc-Imine-6 also 0.05 mM), compared to oxybenzone, FIG. 3
Protocol: Imine-1, Imine-2, and Imine-3 were synthesized, purified, and isolated (see above). All three compounds were separately dissolved in acetonitrile to a final concentration of 5 mM (FIG. 1) or 0.05 mM (FIG. 1, inset) and analyzed by UV/Vis (Cary-50 Spectrophotomer). The spectral properties were compared to oxybenzone in acetonitrile.
Carbamate-1, first described in U.S. Pat. No. 5,490,980A, was synthesized, purified, and isolated (see above). Carbamate-1 was dissolved in acetonitrile to a final concentration of 0.05 mM and analyzed by UV/Vis (Cary-50 Spectrophotomer). The spectral properties were compared to oxybenzone in acetonitrile at a final concentration of 0.05 mM.
Imine-4, Imine-5, and N-Boc-Imine-6 were synthesized, purified, and isolated (see above). All three compounds were separately dissolved in acetonitrile to a final concentration of 5 mM (FIG. 3) and analyzed by UV/Vis (Cary-50 Spectrophotomer). N-Boc-Imine-6 was diluted in acetonitrile to a final concentration of 0.05 mM (FIG. 3, inset) and analyzed by UV/Vis. […] Spectral properties were compared to oxybenzone in acetonitrile at the same concentration.
To understand the solution stability of the Boc-protected imines in protic solvent, N-Boc-Imine-6 was prepared in ethanol in the presence of catalytic glacial acetic acid. Briefly, to a solution of oxybenzone (0.10 g, 0.438 mmol, 1 eq) and N-Boc-1,6-hexanediamine (0.094 g, 0.43 mmol, 1 eq) in ethanol (0.3 mL) was added catalytic glacial acetic acid (1 μL). The reaction mixture was agitated at 900 rpm at 70° C. for 16 hr and monitored by LCMS. […] The reaction was then diluted in ethanol to final concentration of 0.04 mM and analyzed by UV/Vis spectroscopy.
N-Boc-Imine-8 and Imine-8 was synthesized, purified, and isolated (see above). N-Boc-Imine-8 and Imine-8 were dissolved in ethanol to a final concentration of 0.032 mM and 8 mM, respectively (FIG. 6) and analyzed by UV/Vis. (Cary-50 Spectrophotomer). Spectral properties were compared to sulisobenzone in ethanol at similar concentration.
Imine-10 was first dissolved in methyl tert-butyl ether and then diluted in ethanol to a final concentration of 5 mM and 0.04 mM (FIG. 7) and analyzed by UV/Vis. (Cary-50 Spectrophotomer). Spectral properties were compared to oxybenzone at similar concentration.

[2] = Solution stability of Boc-protected imine in protic solvent (ethanol); assay type: physicochemical; conditions: 70° C., catalytic glacial acetic acid, LCMS and UV/Vis
Protocol: To understand the solution stability of the Boc-protected imines in protic solvent, N-Boc-Imine-6 was prepared in ethanol in the presence of catalytic glacial acetic acid. Briefly, to a solution of oxybenzone (0.10 g, 0.438 mmol, 1 eq) and N-Boc-1,6-hexanediamine (0.094 g, 0.43 mmol, 1 eq) in ethanol (0.3 mL) was added catalytic glacial acetic acid (1 μL). The reaction mixture was agitated at 900 rpm at 70° C. for 16 hr and monitored by LCMS. Full reaction of the starting material to a single product peak was observed by LCMS indicating completion. The reaction was then diluted in ethanol to final concentration of 0.04 mM and analyzed by UV/Vis spectroscopy. […] Additionally, the Boc-protecting group remained intact throughout the reaction and UV/Vis analysis.

Structure (SMILES): COc1cc(O)c(/C(=N\CCCCCCN)c2ccccc2)cc1S(=O)(=O)O [Imine-8]
UVA and UVB absorption properties compared to sulisobenzone ([1]; ethanol, N-Boc-Imine-8 0.032 mM, Imine-8 8 mM, FIG. 6): retained absorbance in the UVB region and extended absorbance into the UVA region

Structure (SMILES): CCCCCCOC(=O)c1ccccc1/C(=N/CCCCCCN)c1cccc(N(CC)CC)c1O [Imine-9]
shift of the absorbance spectra ([1]; data not shown): red shift of the absorbance spectra, which extends to the visible region

Structure (SMILES): COc1ccc(/C(=N/c2ccccc2)c2ccccc2)c(O)c1 [Imine-2]
UVA and UVB absorption properties compared to oxybenzone [1]: improved both UVA-1, UVA-2, and UVB absorption properties

Structure (SMILES): COc1ccc(/C(=N/O)c2ccccc2)c(O)c1 [Imine-3]
UVA and UVB absorption properties compared to oxybenzone [1]: loss in the UVA blocking and reduction in UVB blocking

solution stability without reversion to the starting ketone and amine [2]: stable over 24 hours
Structure (SMILES): COc1ccc(/C(=N/CCCCCCNC(=O)OC(C)(C)C)c2ccccc2)c(O)c1 [N-Boc-Imine-6]
absorption spectra, regions encompassed [1]: encompassed the UVA-1, UVA-2, and UVB regions as well as the visible region of the spectrum (greater than 400 nm)
absorption, regions encompassed ([1]; ethanol, 0.04 mM, FIG. 4): encompasses the UVA and UVB regions as well as the visible region of the spectrum (greater than 400 nm)

Structure (SMILES): COc1ccc(/C(=N/C(CCC(N)=O)C(=O)O)c2ccccc2)c(O)c1 (stereo not drawn) [Imine-5]
absorption spectra, regions encompassed [1]: encompassed the UVA-1, UVA-2, and UVB regions as well as the visible region of the spectrum (greater than 400 nm)

Structure (SMILES): COc1ccc(/C(=N/Cc2ccccc2)c2ccccc2)c(O)c1 [Imine-1]
UVA and UVB absorption properties compared to oxybenzone [1]: improved both UVA-1, UVA-2, and UVB absorption properties
